Laboratory results from the supplement of paper PMC8671470.

Key:
Settings in all cases: 72 h
NOMO-1 = tested on: NOMO-1
Procedure, shortened: (§1)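 Fifteen myeloid leukaemia lines in RPMI 1640 were treated for 72 h at 37 °C and 5% CO2 with five tenfold doses from 1 to 10,000 nM, in duplicate. ATP luminescence was normalised to vehicle and to a positive control at 10 µM, then fitted with a four-parameter log-logistic model. The IC50 came from these fits.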

MOLM-13 = tested on: MOLM-13
Procedure, shortened: as §1

KG-1 = tested on: KG-1
Procedure, shortened: as §1

Mono-Mac-6 = tested on: Mono-Mac-6
Procedure, shortened: as §1

LAMA-84 = tested on: LAMA-84
Procedure, shortened: as §1

HL-60 = tested on: HL-60
Procedure, shortened: as §1

BV-173 = tested on: BV-173
Procedure, shortened: as §1

K-562 = tested on: K-562
Procedure, shortened: as §1

KU-812 = tested on: KU-812
Procedure, shortened: as §1

SHI-1 = tested on: SHI-1
Procedure, shortened: as §1

HEL = tested on: HEL
Procedure, shortened: as §1

THP-1 [1] = tested on: THP-1
Procedure, shortened: as §1

ML-2 = tested on: ML-2
Procedure, shortened: as §1

MV4-11 = tested on: MV4-11
Procedure, shortened: as §1

KCL-22 = tested on: KCL-22
Procedure, shortened: as §1

THP-1 [2] = test: cell viability (% survival relative to DMSO control, bortezomib = 0%); higher = less cytotoxic
Procedure, shortened: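 Fifteen myeloid leukaemia cell lines (10 AML, 5 CML) were seeded at a density titrated to the linear growth range into 384-well plates pre-printed with compounds at 1, 10, 100, 1000 or 10000 nM in duplicate. Plates were incubated for 72 h at 37 °C with 5% CO2. Viability was then read by CellTiter-Glo luminescence. Each value is percent survival averaged over the duplicates, with vehicle set to 100% and a 10 µM positive control to 0%.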

| SMILES | IC50 (cell viability) (NOMO-1) [µM] | IC50 (cell viability) (MOLM-13) [µM] | IC50 (cell viability) (KG-1) [µM] | IC50 (cell viability) (Mono-Mac-6) [µM] | IC50 (cell viability) (LAMA-84) [µM] | IC50 (cell viability) (HL-60) [µM] | IC50 (cell viability) (BV-173) [µM] | IC50 (cell viability) (K-562) [µM] | IC50 (cell viability) (KU-812) [µM] | IC50 (cell viability) (SHI-1) [µM] | IC50 (cell viability) (HEL) [µM] | IC50 (cell viability) (THP-1 [1]) [µM] | IC50 (cell viability) (ML-2) [µM] | IC50 (cell viability) (MV4-11) [µM] | IC50 (cell viability) (KCL-22) [µM] | cell viability (THP-1 [2]; 1 nM) [%] | cell viability (THP-1 [2]; 10 nM) [%] | cell viability (THP-1 [2]; 100 nM) [%] | cell viability (THP-1 [2]; 1000 nM) [%] | cell viability (THP-1 [2]; 10000 nM) [%] |
| --- | --- | --- | --- | --- | --- | --- | --- | --- | --- | --- | --- | --- | --- | --- | --- | --- | --- | --- | --- | --- |
| OCCN1CCN(CCCN2c3ccccc3Sc3ccc(Cl)cc32)CC1 [Perphenazine] | > 10 | 5.77 | 8.85 | > 10 | 9.39 | 5.06 | 5.91 | 2.87 | 6.71 | > 10 | > 10 | > 10 | 7.38 | 3.54 | 8.23 | 95.7 | 99.2 | 103 | 99.1 | 50.2 |
| C=CCc1ccc2c(c1O)C(=O)c1ccccc1C2=O [R162] | > 10 | > 10 | > 10 | > 10 | > 10 | > 10 | > 10 | > 10 | > 10 | > 10 | > 10 | > 10 | > 10 | > 10 | > 10 | 101 | 99.1 | 102 | 109 | 109 |
| O=C(c1ccc(OCCN2CCCCC2)cc1)c1c(-c2ccc(O)cc2)sc2cc(O)ccc12 [Raloxifene] | > 10 | > 10 | > 10 | > 10 | > 10 | > 10 | > 10 | > 10 | > 10 | > 10 | > 10 | > 10 | > 10 | > 10 | > 10 | 94.5 | 97 | 96.5 | 105 | 93.5 |
| NC(=O)c1ncn([C@@H]2O[C@H](CO)[C@@H](O)[C@H]2O)n1 [Ribavirin] | > 10 | > 10 | > 10 | > 10 | > 10 | > 10 | > 10 | > 10 | > 10 | > 10 | > 10 | > 10 | > 10 | > 10 | > 10 | 96.5 | 103 | 107 | 107 | 112 |
| Nc1ncnc2c1ncn2[C@@H]1O[C@H](CSCC[C@H](N)C(=O)O)[C@@H](O)[C@H]1O [S-Adenosyl Homocysteine] | > 10 | > 10 | > 10 | > 10 | > 10 | > 10 | > 10 | > 10 | > 10 | > 10 | > 10 | > 10 | > 10 | > 10 | > 10 | 103 | 90.8 | 100 | 98.9 | 111 |
| CCCc1nn(C)c2c(O)nc(-c3cc(S(=O)(=O)N4CCN(C)CC4)ccc3OCC)nc12 [Sildenafil] | > 10 | > 10 | > 10 | > 10 | > 10 | > 10 | > 10 | > 10 | > 10 | > 10 | > 10 | > 10 | > 10 | > 10 | > 10 | 90.3 | 99.4 | 97.1 | 99.8 | 101 |
| Cc1coc2c1C(=O)C(=O)c1c-2ccc2c(C)cccc12 [Tanshinone I] | > 10 | > 10 | > 10 | > 10 | > 10 | > 10 | > 10 | > 10 | > 10 | > 10 | > 10 | > 10 | > 10 | > 10 | > 10 | 109 | 102 | 98.9 | 103 | 90.1 |
| CN(C/C=C/C#CC(C)(C)C)Cc1cccc2ccccc12 [Terbinafine] | > 10 | > 10 | > 10 | > 10 | > 10 | > 10 | > 10 | > 10 | > 10 | > 10 | > 10 | > 10 | > 10 | > 10 | > 10 | 102 | 94.6 | 92 | 100 | 94.4 |
| CCOC(=O)N1c2ccc(C(F)(F)F)cc2[C@@H](N(Cc2cc(C(F)(F)F)cc(C(F)(F)F)c2)C(=O)OC)C[C@H]1CC [Torcetrapib] | > 10 | > 10 | 9.96 | > 10 | > 10 | > 10 | 0.652 | > 10 | > 10 | > 10 | > 10 | > 10 | 7.83 | 7.03 | > 10 | 103 | 97.6 | 99.4 | 101 | 92.2 |
| Oc1cc(Cl)ccc1Oc1ccc(Cl)cc1Cl [Triclosan] | > 10 | > 10 | > 10 | > 10 | > 10 | > 10 | > 10 | > 10 | > 10 | > 10 | > 10 | > 10 | > 10 | > 10 | > 10 | 92.7 | 98.5 | 103 | 108 | 92 |
| COc1cc2c(NC3CCN(C)CC3)nc(N3CCCN(C)CC3)nc2cc1OCCCN(C)C [UNC0224] | > 10 | > 10 | > 10 | > 10 | > 10 | > 10 | > 10 | > 10 | > 10 | > 10 | > 10 | > 10 | > 10 | > 10 | > 10 | 103 | 102 | 93.8 | 93 | 79.7 |
| CC(C)C[C@H](NC(=O)[C@@H](O)[C@H](N)Cc1ccccc1)C(=O)O [Ubenimex] | > 10 | > 10 | > 10 | > 10 | > 10 | > 10 | > 10 | > 10 | > 10 | > 10 | > 10 | > 10 | > 10 | > 10 | > 10 | 89.2 | 97.9 | 93.1 | 84.8 | 94.8 |
| O=P(O)(O)C(O)(Cn1ccnc1)P(=O)(O)O [Zoledronic acid] | > 10 | > 10 | > 10 | > 10 | > 10 | > 10 | > 10 | > 10 | > 10 | > 10 | > 10 | > 10 | > 10 | > 10 | > 10 | 104 | 105 | 91.5 | 89.1 | 99.5 |
